The record followed here is EP1144368B1, “ACETYLENIC ALPHA-AMINO ACID-BASED SULFONAMIDE HYDROXAMIC ACID TACE INHIBITORS” (priority 1999, dated 2000).

Where a name gives a salt, the structure may show the parent alone. Read-outs that look alike come from different tables or passages of the source.

The target in one assay is T1, MMP-1 (Homo sapiens, UniProt P03956).
T1 sequence (P03956 100-469): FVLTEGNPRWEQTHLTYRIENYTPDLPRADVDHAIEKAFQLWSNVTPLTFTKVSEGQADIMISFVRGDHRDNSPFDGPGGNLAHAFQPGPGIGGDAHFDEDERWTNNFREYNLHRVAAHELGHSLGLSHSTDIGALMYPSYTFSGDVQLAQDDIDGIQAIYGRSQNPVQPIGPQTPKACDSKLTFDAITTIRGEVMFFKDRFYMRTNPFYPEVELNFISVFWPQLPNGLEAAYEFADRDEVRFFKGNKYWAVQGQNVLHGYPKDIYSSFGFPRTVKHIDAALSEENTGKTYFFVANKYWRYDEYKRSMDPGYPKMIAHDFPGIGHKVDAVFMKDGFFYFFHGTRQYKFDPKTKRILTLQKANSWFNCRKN
Kind of assay: MMP-1 inhibition (thiopeptide or fluorescent peptide substrate). It is filed as biochemical.

In the next assay the target is MMP-13 (Homo sapiens, UniProt P45452). Description: MMP-13 inhibition (thiopeptide or fluorescent peptide substrate). Type of assay: biochemical.
In a further assay the test system is THP-1 cells. Description: THP-1 Soluble Protein Assay (LPS-stimulated; ELISA of TNF-a, TNF-R p75/80, TNF-R p55/60, IL-8). Type of assay: cell-based, human. The settings on record: for inhibition at 3 µM: Homo sapiens. On the technique in general: An ELISA detects its analyte on a solid surface through an enzyme-linked reagent.
Another assay concerns the target TACE (Homo sapiens, UniProt P78536). Description: TACE inhibition (fluorescent peptidyl substrate). Type of assay: biochemical. The settings on record: for inhibition at 1 µM: read-out: % Inhibition at 1 uM.
The next assay concerns the target MMP-9 (Homo sapiens, UniProt P14780). Description: MMP-9 inhibition (thiopeptide or fluorescent peptide substrate). Type of assay: biochemical.
[1] abbreviates: THP-1, read-out: THP % inhibition @ 3 µM, 3 µM.
[2] abbreviates: In Vitro Inhibition of TACE, 1 uM.
The mark [3] stands for this setting: THP-1, 3 µM, read-out: THP % Inhibition @ 3µM.
Setting [4] is: Table 15: In Vitro Inhibition of TACE.

TACE, sequence (P78536 215-824): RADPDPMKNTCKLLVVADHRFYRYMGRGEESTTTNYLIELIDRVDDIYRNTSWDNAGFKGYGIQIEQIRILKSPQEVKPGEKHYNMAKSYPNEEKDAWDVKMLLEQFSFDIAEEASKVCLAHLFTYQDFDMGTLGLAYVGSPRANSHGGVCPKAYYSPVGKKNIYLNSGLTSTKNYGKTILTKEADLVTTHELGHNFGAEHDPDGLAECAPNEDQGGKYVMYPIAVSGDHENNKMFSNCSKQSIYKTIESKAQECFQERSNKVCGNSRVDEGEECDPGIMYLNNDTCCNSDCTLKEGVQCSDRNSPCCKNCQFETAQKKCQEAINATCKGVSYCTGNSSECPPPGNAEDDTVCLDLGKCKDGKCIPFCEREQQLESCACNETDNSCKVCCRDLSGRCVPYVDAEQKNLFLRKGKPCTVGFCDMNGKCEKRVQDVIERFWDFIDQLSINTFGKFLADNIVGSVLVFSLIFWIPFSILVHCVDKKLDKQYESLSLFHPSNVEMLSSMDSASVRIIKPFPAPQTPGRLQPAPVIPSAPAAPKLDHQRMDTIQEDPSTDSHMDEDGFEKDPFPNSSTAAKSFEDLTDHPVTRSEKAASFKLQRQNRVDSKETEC
MMP-9, sequence (P14780 107-707 limits assumed): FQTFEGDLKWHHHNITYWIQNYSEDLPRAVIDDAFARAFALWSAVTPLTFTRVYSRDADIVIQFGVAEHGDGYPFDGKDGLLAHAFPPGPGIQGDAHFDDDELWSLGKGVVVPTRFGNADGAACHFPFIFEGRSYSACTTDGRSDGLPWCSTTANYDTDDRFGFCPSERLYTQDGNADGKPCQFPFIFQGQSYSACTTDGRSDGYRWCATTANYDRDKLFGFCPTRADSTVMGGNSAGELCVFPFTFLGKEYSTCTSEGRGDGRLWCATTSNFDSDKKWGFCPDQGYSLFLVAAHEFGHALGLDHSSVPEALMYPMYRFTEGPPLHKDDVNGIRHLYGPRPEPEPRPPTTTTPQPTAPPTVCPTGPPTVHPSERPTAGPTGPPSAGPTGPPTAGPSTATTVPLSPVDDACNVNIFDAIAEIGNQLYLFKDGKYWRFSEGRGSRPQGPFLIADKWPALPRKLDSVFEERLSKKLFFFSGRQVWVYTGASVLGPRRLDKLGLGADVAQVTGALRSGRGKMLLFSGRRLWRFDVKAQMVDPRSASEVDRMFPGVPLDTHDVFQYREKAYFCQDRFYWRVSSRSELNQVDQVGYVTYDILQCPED
Description for MMP-13: (§1) The enzyme activity is measured by the rate of the color increase. The thiopeptide substrate is made up fresh as a 20 mM stock in 100% DMSO and the DTNB is dissolved in 100% DMSO as a 100 mM stock and stored in the dark at room temperature. Both the substrate and DTNB are diluted together to 1 mM with substrate buffer (50 mM HEPES pH 7.5, 5 mM CaCl2) before use. The stock of enzyme is diluted with buffer (50 mM HEPES, pH 7.5, 5 mM CaCl2, 0.02% Brij) to the desired final concentration.
(§2) Alternatively, a fluorescent peptide substrate is used. In this test procedure, the peptide substrate contains a fluorescent group and a quenching group. Upon cleavage of the substrate by an MMP, the fluorescence that is generated is quantitated on the fluorescence plate reader. The assay is run in HCBC assay buffer (50mM HEPES, pH 7.0, 5 mM Ca^+2, 0.02% Brij, 0.5% Cysteine), with human recombinant MMP-1, MMP-9, or MMP-13. The substrate is dissolved in methanol and stored frozen in 1 mM aliquots. For the assay, substrate and enzymes are diluted in HCBC buffer to the desired concentrations. Compounds are added to the 96 well plate containing enzyme and the reaction is started by the addition of substrate.
(§3) For either the thiopeptide or fluorescent peptide test procedures, the slope of the line is calculated and represents the reaction rate. The linearity of the reaction rate is confirmed (r^2 >0.85). The mean (x±sem) of the control rate is calculated and compared for statistical significance (p<0.05) with drug-treated rates using Dunnett's multiple comparison test.
Description for MMP-9: as §1, §2, §3
Description for TACE: Using 96-well black microtiter plates, each well receives a solution composed of 10 µL TACE (final concentration 1µg/mL), 70µL Tris buffer, pH 7.4 containing 10% glycerol (final concentration 10 mM), and 10 µL of test compound solution in DMSO (final concentration 1µM, DMSO concentration <1%) and incubated for 10 minutes at room temperature.
The reaction is read (excitation 340 nm, emission 420 nm) for 10 min. and the increase in fluorescence over time is plotted as a linear line. The slope of the line is calculated and represents the reaction rate.
The linearity of the reaction rate is confirmed (r^2 >0.85). The mean (x±sem) of the control rate is calculated and compared for statistical significance (p<0.05) with drug-treated rates using Dunnett's multiple comparison test.

The IC50 is the concentration needed to halve the response being measured. Broadly, the inhibition is the change of the read-out against control, counted positive when it falls. For the molecule `CC#CCOc1ccc(S(=O)(=O)N(C)CC(=O)NO)cc1` [Example 17, 2-[(4-But-2-ynyloxy-benzenesulfonyl)-methyl-amino]-N-hydroxy-acetamide], the IC50 on MMP-1 is 1900 nM; against MMP-13 it was 99 nM. Further, in the assay on THP-1 cells (setting [1]), the inhibition at 3 µM is 33%.
On to `CC#CCOc1ccc(S(=O)(=O)N[C@H](Cc2c[nH]c3ccccc23)C(=O)NO)cc1` [Example 83], for which the inhibition at 1 µM on TACE (setting [2]) came to 105%.
The same measure, in the same setting: to `CC#CCOc1ccc(S(=O)(=O)N[C@@H](CC(C)C)C(=O)NO)cc1` [Example 90] belongs 58.9%; to `CC#CCOc1ccc(S(=O)(=O)N[C@@H](CC2CCCCC2)C(=O)NO)cc1` [Example 71], 86.7%.
The same measure, in the same setting: to `CC#CCOc1ccc(S(=O)(=O)N[C@@H](CC)C(=O)NO)cc1` [Example 63] belongs 47.6%.
Consider `CC#CCOc1ccc(S(=O)(=O)N(CCCCN2CCN(C)CC2)C(C(=O)NO)C(C)C)cc1` (stereo not shown) [Example 122, 2-{{[4-(2-Butynyloxy)phenyl]sulfonyl}[4-(4-methyl-1-piperazinyl)butyl]amino}-N-hydroxy-3-methylbutanamide], for which the IC50 at TACE (read-out: TACE IC50) was found to be 126 nM. Also, the inhibition at 3 µM in the assay on THP-1 cells (setting [1]) worked out at 69%.
As for `CC#CCOc1ccc(S(=O)(=O)N2CCSC(CC)(CC)C2C(=O)NO)cc1` (stereo not shown) [Example 238], the IC50 at MMP-1 amounted to 38 nM; on MMP-13 it was 6.8 nM; on TACE (read-out: TACE IC50) it was 228 nM. Moreover, the inhibition at 3 µM with THP-1 cells (setting [1]) turned out to be 73%.
At MMP-9, `CC#CCOc1ccc(S(=O)(=O)N(C)C(CSCc2cccnc2)C(=O)NO)cc1` (stereo not shown) [Example 155, 2-[(4-But-2-ynyloxy-benenesulfonyl)-methyl-amino]-N-hydroxy-3-(pyridin-3-ylmethylsulfanyl)-butyramide] registered an IC50 of 14 nM. Further, in the assay on THP-1 cells (setting [1]), the inhibition at 3 µM worked out at 93%.
On to `CC#CCOc1ccc(S(=O)(=O)N[C@@H](CC(=O)O)C(=O)NO)cc1` [Example 67], for which the inhibition at 1 µM at TACE (setting [2]) turned out to be 46.2%.
For `CC#CCOc1ccc(S(=O)(=O)NCCC(=O)NO)cc1` [Example 69], on TACE, the inhibition at 1 µM was 48.5%.
Take `CC#CCOc1ccc(S(=O)(=O)N[C@H](CCSC)C(=O)NO)cc1` [Example 80]: the inhibition at 1 µM at TACE (setting [2]) was 105%.
Same read-out and setting: to `CC#CCOc1ccc(S(=O)(=O)N[C@@H](CSCNC(C)=O)C(=O)NO)cc1` [Example 96] belongs 22%.
Regarding “9-({[4-(2-Butynyloxy)phenyl]sulfonyl}-N-hydroxy-1-thia-4-azaspiro [5,5]undecane-5-carboxamide [Example 237]”, the figures for the IC50 on MMP-1, against MMP-13 and at TACE (read-out: TACE IC50) were 62 nM, 12 nM and 212 nM, respectively. In the assay with THP-1 cells (3 µM), the “THP % inhibition @ 3 µM” value came to 90%.
As to `CC#CCOc1ccc(S(=O)(=O)N[C@@H](CCCNC(N)=NS(=O)(=O)c2ccc(C)cc2)C(=O)NO)cc1` [Example 65], on TACE (setting [2]), the inhibition at 1 µM stood at 102%.
Same read-out and setting: the value for `CC#CCOc1ccc(S(=O)(=O)N[C@@H](Cc2ccc(OCc3ccccc3)cc2)C(=O)NO)cc1` [Example 103] was 52.8%.
As to `CC#CCOc1ccc(S(=O)(=O)N2CCN(C(=O)c3ccccc3)CCC2C(=O)NO)cc1` (stereo not shown) [Example 289, 1-Benzoyl-4-{[4-(2-butynyloxy)phenyl]sulfonyl}-N-hydroxy-1,4-diazepane-5-carboxamide], inhibition on MMP-13 was half-maximal at 4 nM (IC50).
Consider `CC#CCOc1ccc(S(=O)(=O)N(C)C(C(=O)NO)c2ccc(OCCCNC(=O)OCc3ccccc3)cc2)cc1` (stereo not shown) [Example 196, Benzyl3-{4-[1-[{[4-(2-butynyloxy)phenyl]sulfonyl}(methyl)amino]-2-(hydroxyamino)-2-oxoethyl]phenoxy}propylcarbamate], for which, at MMP-1 (@1 (concentration unit not given)), the “MMP-1 %@1” value was 25%@1. Moreover, in the assay with THP-1 cells (setting [1]), the inhibition at 3 µM is 87%.
As to `CC#CCOc1ccc(S(=O)(=O)N[C@@H](CCN)C(=O)NO)cc1` [Example 70], the inhibition at 1 µM on TACE (setting [2]) stood at 21.1%.
Turning to `CC#CCOc1ccc(S(=O)(=O)N2C[C@H](CN)SC(C)(C)[C@@H]2C(=O)NO)cc1` [Example 276, (3S,6S)-Cis-6-(aminomethyl)-4-{[4-(2-butynyloxy)phenyl]sulfonyl}-N-hydroxy-2,2-dimethyl-3-thiomorpholinecarboxamide hydrochloride], at MMP-9, the IC50 amounted to 64 nM. The inhibition at 3 µM with THP-1 cells (setting [3]) came to 94%.
Consider `CC#CCOc1ccc(S(=O)(=O)N[C@@H](CC(N)=O)C(=O)NO)cc1` [Example 66], for which the inhibition at 1 µM on TACE (setting [2]) stood at 45.6%.
On the same count and under the same terms, the value for `CC#CCOc1ccc(S(=O)(=O)N[C@@H](Cc2cnc[nH]2)C(=O)NO)cc1` [Example 87] was 47.8%; that for `CC#CCOc1ccc(S(=O)(=O)N[C@H](C(=O)NO)[C@@H](C)OCc2ccccc2)cc1` [Example 99] was 28.5%.
On to `CC#CCOc1ccc(S(=O)(=O)N[C@H](C(=O)NO)C(C)C)cc1` [Example 104], for which, on TACE, the inhibition at 1 µM is 38.5%.
With `CC#CCOc1ccc(S(=O)(=O)N[C@H](CC2CCCCC2)C(=O)NO)cc1` [Example 77], the inhibition at 1 µM on TACE (setting [2]) is 105%.
Take `CC#CCOc1ccc(S(=O)(=O)N[C@H](CC(C)C)C(=O)NO)cc1` [Example 79]: the inhibition at 1 µM on TACE (setting [2]) was 107%. Besides, the midpoint of inhibition against TACE (setting [4]), the IC50, lay at 5.7 ± 2.5 nM.
With `CC#CCOc1ccc(S(=O)(=O)N[C@@H](C(=O)NO)C2CCCCC2)cc1` [Example 78], the inhibition at 1 µM at TACE (setting [2]) was determined as 101%.
Still for that read-out and setting: the value for `CC#CCOc1ccc(S(=O)(=O)N2C[C@H](OCc3ccccc3)C[C@H]2C(=O)NO)cc1` [Example 88] was 8.4%.
Still for that read-out and setting: to `CC#CCOc1ccc(S(=O)(=O)N[C@@H](CCCNC(=N)N)C(=O)NO)cc1` [Example 64] belongs 67.4%; to `CC#CCOc1ccc(S(=O)(=O)N[C@H](CC(N)=O)C(=O)NO)cc1` [Example 75], 55.8%.
Consider `CC#CCOc1ccc(S(=O)(=O)N[C@H](CCCNC(=O)Oc2ccc(OC)cc2)C(=O)NO)cc1` [Example 372, 4-Methoxyphenyl (4R)-4-({[4-(but-2-ynyloxy)phenyl]sulfonyl}amino)-5-(hydroxyamino)-5-oxopentylcarbamate], for which, at TACE, the IC50 came out at 8.4 nM.
`CC#CCOc1ccc(S(=O)(=O)N[C@@H](CO)C(=O)NO)cc1` [Example 98]: the inhibition at 1 µM on TACE (setting [2]) stood at 2.5%.
As to `CC#CCOc1ccc(S(=O)(=O)N[C@H](Cc2ccccc2)C(=O)NO)cc1` [Example 81], the inhibition at 1 µM on TACE (setting [2]) was 106%.
On the same count and under the same terms, the value for `CC#CCOc1ccc(S(=O)(=O)N[C@@H](Cc2ccccc2)C(=O)NO)cc1` [Example 94] was 38.2%; that for `CC#CCOc1ccc(S(=O)(=O)N[C@H](Cc2ccc(O)cc2)C(=O)NO)cc1` [Example 84] was 101%; that for `CC#CCOc1ccc(S(=O)(=O)N[C@H](C(=O)NO)[C@@H](C)CC)cc1` [Example 89] was 56.8%.
On the same count and under the same terms, to `CC#CCOc1ccc(S(=O)(=O)N[C@H](C(=O)NO)c2ccccc2)cc1` [Example 95] belongs 98.6%; to `CC#CCOc1ccc(S(=O)(=O)N[C@H](C(=O)NO)C2CCCCC2)cc1` [Example 72], 57.4%.
Turning to `CC#CCOc1ccc(S(=O)(=O)N[C@H](C(=O)NO)[C@@H](C)O)cc1` [Example 100], the inhibition at 1 µM at TACE worked out at 15.4%.
With `CC#CCOc1ccc(S(=O)(=O)N2CCC[C@@H]2C(=O)NO)cc1` [Example 82], the inhibition at 1 µM on TACE (setting [2]) was 98.4%.
Turning to `CC#CCOc1ccc(S(=O)(=O)N[C@@H](CCCCN)C(=O)NO)cc1` [Example 92], the inhibition at 1 µM on TACE (setting [2]) was 102%.
For `CC#CCOc1ccc(S(=O)(=O)N2CCN(C)CCC2C(=O)NO)cc1` (stereo not shown) [Example 293, 4-{[4-(2-Butynyloxy)phenyl]sulfonyl}-N-hydroxy-1-methyl-1,4-diazepane-5-carboxamide], the IC50 on MMP-13 amounted to 21 nM. In addition, in the assay with THP-1 cells (setting [3]), the inhibition at 3 µM was 82%.
As for `CC#CCOc1ccc(S(=O)(=O)N[C@@H](CCC(=O)O)C(=O)NO)cc1` [Example 86], the inhibition at 1 µM at TACE (setting [2]) was 37.5%.
Take `CC#CCOc1ccc(S(=O)(=O)N[C@@H](CSC(C)(C)C)C(=O)NO)cc1` [Example 73]: at TACE (setting [2]), the inhibition at 1 µM worked out at 79%. This molecule had an IC50 against TACE (setting [4]) of 451 ± 31 nM.
Turning to `CC#CCOc1ccc(S(=O)(=O)N[C@@H](CSCc2ccc(OC)cc2)C(=O)NO)cc1` [Example 74], at TACE (setting [2]), the inhibition at 1 µM was determined as 73.8%.
Take `CC#CCOc1ccc(S(=O)(=O)N[C@@H](C)C(=O)NO)cc1` [Example 62B, L-2-(4-But-2-ynyloxy-benzenesulfonylamino)-N-hydroxy-propionamide]: the inhibition at 1 µM on TACE stood at 46.2%.
Turning to `CC#CCOc1ccc(S(=O)(=O)N2CCSC(C)(C)C2C(=O)NO)cc1` (stereo not shown) [235, 38], the IC50 against MMP-1 amounted to 6.6 nM; at TACE (read-out: TACE IC50), 8.4 nM. For the same molecule, in the assay on THP-1 cells (setting [1]), the inhibition at 3 µM is 94%.
For the molecule `CC#CCOc1ccc(S(=O)(=O)N[C@@H](Cc2ccc(O)cc2)C(=O)NO)cc1` [Example 102], the inhibition at 1 µM on TACE (setting [2]) amounted to 27.3%.
On the same count and under the same terms, the value for `CC#CCOc1ccc(S(=O)(=O)N[C@@H](Cc2c[nH]c3ccccc23)C(=O)NO)cc1` [Example 101] was 30.2%; that for `CC#CCOc1ccc(S(=O)(=O)N[C@H](CCCN)C(=O)NO)cc1` [Example 76] was 29.7%; that for `CC#CCOc1ccc(S(=O)(=O)N[C@@H](CCCC)C(=O)NO)cc1` [Example 93] was 61.7%.
